Converted amounts (≈) assume the structure as drawn.
Tests used:
gastric acid secretion = test: Assay of the inhibition of gastric acid secretion by using pylorus ligature (Shay et al.); format: in vivo, Wistar rats; settings: for inhibition at 10 mg/kg: read-out: % Inhibition in the amount of the acid at a dose of 10 mg/kg p.o. (pretreatment: 30 min)
Protocol: 3) Assay of the inhibition of gastric acid secretion -by using pylorus ligature
[Shay et al., Gastroenterology, 5, 43-61 (1945)]
Before ligating the pylorus the test compounds suspended with Tween were given orally at a volume of 0.5 ml per […] of body weight to female Wistar rats fasted previously for 20 hours. The animals were sacrificed 4 hours after the operation, and the amount of the acid in the stomach was measured by titration with 0.01N sodium hydroxide solution in the presence of phenolphtalein indicator. The pH value of the content of stomach was measured by using a pH-meter (Radelkis, Type OP-211/1).

[1] = test system: gastric injuries induced by acidic alcohol; test: Assay of gastric injuries induced by acidic alcohol (Robert); format: in vivo, rats; settings: for ED₅₀ p.o. (pretreatment: 30 min) / ED50: haemorrhagic lesions after acidic alcohol, female rats; for inhibition at 10 mg/kg / ED50: Rattus norvegicus, po, pretreatment 30 min; for inhibition at 10 mg/kg: read-out: % Inhibition at a dose of 10 mg/kg p.o. (pretreatment: 30 min); for ED50: read-out: ED₅₀ p.o. (pretreatment: 30 min)
Protocol: 1) Assay of gastric injuries induced by acidic alcohol [A. Robert, Gastroenterology, 77, 761-767 (1979)] Female rats weighing about 120 to 150 g fasted for 24 hours were used in this test. Test compounds suspended with Tween 80 were given orally to the animals through an intragastric tube. After a certain period (pretreatment time) acidic alcohol was given through the intragastric tube at a dose or 0.5 ml per 100 g of body weight. The animals were sacrificed after 1 hour, their stomach was removed and incised along the great curve. The length of the reddish-brown strips (haemorrhagic lesions) was measured and the mean total length per stomach was calculated. The biological activity of the test compounds was given compared to the control group.

[2] = test system: chronic ulcer model induced by acetic acid; test: Assay of a chronic ulcer model induced by acetic acid (Tagaki et al); format: in vivo, rats; settings: from day 5 to day 10 after operation, sacrificed day 15
Protocol: 2)Assay of a chronic ulcer model induced by acetic acid
The assay was carried out in the following manner. Abdominal wall of femal rats previously fasted for 24 hours was incised under ether anaesthesia. A 20% solution of acetic acid (25 µl) was injected to the subserosus layer of the glandular part of the stomach near the pylorus. Thereafter the abdominal wall was closed and the animal was kept on normal diet, by providing feed and water ad libitum. The treatment was started 5 days after the operation and continued until the 10th day by administering the test compound once a day The animals were sacrificed 15 days after the operation and their stomach was removed. The extent of the ulcer was determined by measuring the diameter of the necrotic regions and calculating their total area. The curative effect of the tested compounds was calculated by the following formula in %: [formula]

Campylobacter pylori = test: Activity against Campylobacter pylori by agar diffusion and agar dilution methods; format: cell-based; settings: Helicobacter pylori; Campylobacter pylori cultures isolated from 5 different ulcerous patients; read-out: MIC (minimal inhibitory concentration)
Protocol: The activity of the compounds of formula (I) against Campylobacter pylori was investigated by agar diffusion and agar dilution methods. The experiments were carried out with Campylobacter pylori cultures isolated from 5 different ulcerous patients.

[3] = Rattus norvegicus, po, 10 mg/kg p.o., pretreatment 30 min, acid titrated 4 hours after pylorus ligature
[4] = 10 mg/kg p.o., compared to the control group

| Compound | inhibition at 10 mg/kg (gastric acid secretion; [3]) [%] | inhibition at 10 mg/kg [1, 4] [%] | ED50 [1] [mg/kg] | other results |
| --- | --- | --- | --- | --- |
| O=C(O)/C=C/Sc1ccccc1 [G, magnesium bis[3-phenylthio-2(E)-propenoate]] | 16 | – | – | – |
| O=C(O)/C=C/S(=O)(=O)c1ccccc1 [F, 3-phenylsulfonyl-2(E)-propenoic acid] | – | – | – | % Inhibition at a dose of 10 mg/kg p.o. (pretreatment: 30 min) [1, 4]: 86%; ED₅₀ p.o. (pretreatment: 30 min) [1]: 3.4 mg/kg; % Inhibition in the amount of the acid at a dose of 10 mg/kg p.o. (pretreatment: 30 min) (gastric acid secretion; 10 mg/kg p.o., acid titrated 4 hours after pylorus ligature): 48%; ED₅₀ p.o. (pretreatment: 30 min) (gastric acid secretion; p.o., gastric acid secretion, pylorus ligature, 4 hours after operation): 12.0 mg/kg; % Curative effect ([2]; 50 mg/kg p.o. once a day): 37% |
| COC(=O)/C=C/S(=O)(=O)c1ccccc1 [I, methyl 3-phenylsulfonyl-2(E)-propenoate] | 21 | 98 | – | MIC (Campylobacter pylori): 250 to 270 µg/mL (≈ 1100 to 1190 µM); % Curative effect ([2]; 30 mg/kg p.o. once a day): 73% |
| O=C(O)/C=C/S(=O)(=O)c1ccccc1 [H, magnesium bis[3-phenylsulfonyl-2(E)-propenoate]hydrate] | 63 | 96 | 3.2 | ED50 (gastric acid secretion; Rattus norvegicus, po, pretreatment 30 min, gastric acid secretion, pylorus ligature, 4 hours after operation, read-out: ED₅₀ p.o. (pretreatment: 30 min)): 10 mg/kg; % Curative effect ([2]; 30 mg/kg p.o. once a day): 27% |
| Sucralfat [reference compound] | – | – | – | ED₅₀ p.o. (pretreatment: 30 min) [1]: 150 mg/kg; % Curative effect ([2]; 500 mg/kg p.o. once a day): 55% |
| O=C(O)/C=C/[S+]([O-])c1ccccc1 (stereo not drawn) [Compound D, 3-phenylsulfinyl-2(E)-propenoic acid] | 22 | 64 | 4.2 | – |
| O=C(O)/C=C\S(=O)(=O)c1ccccc1 [Compound E, 3-phenylsulfonyl-2(Z)-propenoic acid] | – | 13 | – | – |
| O=C(O)/C=C\[S+]([O-])c1ccccc1 (stereo not drawn) [C, 3-phenylsulfinyl-2(Z)-propenoic acid] | 15 | 56 | – | – |
| O=C(O)/C=C/Sc1ccccc1 [B, 3-phenylthio-2(E)-propenoic acid] | – | – | 31 | – |
